Patent publication US20040006236A1, “Diaminopropionic acid derivatives” (priority 1999, published 2004)

Columns and labels:
[1] = target: T1, ICAM-1 binding to immobilized Mac-1 (Homo sapiens, UniProt P05107+P11215); assay: Mac-1/ICAM-1 screening assay (solid-phase ELISA); conditions: read-out: Mac-1/ICAM-1 Protein-Protein Assay IC50
T1 construct: made in house; host or cells: transfected 293 cells (Mac-1)
Procedure, shortened: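 Competitive solid-phase ELISA: membrane Mac-1 from transfected 293 cells coated at 3 μg/mL in 20 mM Hepes pH 7.2/0.14 M NaCl/1 mM MnCl2; compounds (0.12 nM-20 μM, 1:4 series) plus 5dICAM-Ig (40 μg/mL, added) 2 h at 37° C. Bound ICAM-Ig detected with HRP anti-human IgG Fc, TMB, A450; IC50 reported.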

[2] = system: cell-surface Mac-1 adhesion to immobilized fibrinogen (HL-60 cells); assay: Mac-1/Fibrinogen cell-based screening assay; parameters: species or system human; conditions: Homo sapiens, HL-60, HL-60 cells; read-out: Mac-1/Fgn Cell based Assay IC50
Procedure, shortened: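 Wells coated with fibrinogen and blocked with PVP. Labeled HL-60 cells (2×10^6 cells/mL in RPMI/0.05% BSA/0.2 mM MnCl2) preincubated with DMSO-diluted compounds for 10 min at 37° C, then left to adhere 30 min at 37° C/5% CO2. Unbound cells washed off with TBS.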

T1 sequence (P05107 23-769, other chains not shown): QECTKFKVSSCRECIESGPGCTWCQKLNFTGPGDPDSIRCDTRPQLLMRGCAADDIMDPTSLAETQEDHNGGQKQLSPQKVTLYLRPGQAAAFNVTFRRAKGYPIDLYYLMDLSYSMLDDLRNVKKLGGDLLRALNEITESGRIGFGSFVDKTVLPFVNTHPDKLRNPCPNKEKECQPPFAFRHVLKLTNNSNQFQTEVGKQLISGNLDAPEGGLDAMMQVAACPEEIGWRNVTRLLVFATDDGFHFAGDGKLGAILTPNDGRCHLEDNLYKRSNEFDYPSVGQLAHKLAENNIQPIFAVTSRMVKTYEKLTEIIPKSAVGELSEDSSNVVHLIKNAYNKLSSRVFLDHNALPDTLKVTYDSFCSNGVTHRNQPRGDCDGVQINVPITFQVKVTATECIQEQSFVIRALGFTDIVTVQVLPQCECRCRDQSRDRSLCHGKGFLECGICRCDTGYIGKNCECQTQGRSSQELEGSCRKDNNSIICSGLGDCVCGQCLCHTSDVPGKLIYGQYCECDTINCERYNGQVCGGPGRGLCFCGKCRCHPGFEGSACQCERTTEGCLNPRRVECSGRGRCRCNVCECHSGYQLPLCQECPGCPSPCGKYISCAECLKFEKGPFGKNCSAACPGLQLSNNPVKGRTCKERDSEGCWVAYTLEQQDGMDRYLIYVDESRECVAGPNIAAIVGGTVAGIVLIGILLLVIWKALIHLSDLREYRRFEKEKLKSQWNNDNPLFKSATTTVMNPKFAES

Row | SMILES | IC50 [1] | IC50 [2]
1 | O=C(NCc1cccc(O)c1)c1ccc(C(=O)N[C@@H](CNC(=O)[C@H](CC2CCCCC2)n2cccc2)C(=O)O)c(Cl)c1 [Example 110] | 272 nM | 
2 | CN(C)c1ccc(C(=O)NC[C@H](NC(=O)c2ccc(C(=O)NCc3cccc(O)c3)cc2Cl)C(=O)O)cc1 [Example 128] | 124 nM | 
3 | C[C@@H](NC(=O)c1cc(Cl)c(C(=O)N[C@@H](CNC(=O)c2cccs2)C(=O)O)c(Cl)c1)c1cccc2ccccc12 [Example 346, N-[2,6-dichloro-4-[[[(1R)-1-(1-naphthalenyl)ethyl]amino]carbonyl]benzoyl]-3-[(thiophene-2-carbonyl)amino]-L-alanine] |  | 4 nM
4 | C[C@@H](NC(=O)c1cc(Cl)c(C(=O)N[C@@H](CNC(=O)c2ccccc2)C(=O)O)c(Cl)c1)c1cccc2ccccc12 [Example 347] |  | 13.1 nM
5 | O=C(NCc1cccc(O)c1)c1cc(Cl)c(C(=O)N[C@@H](CNC(=O)c2cccc(F)c2)C(=O)O)c(Cl)c1 [Example 349] |  | 6.2 nM
6 | O=C(NCc1cccc(O)c1)c1cc(Cl)c(C(=O)N[C@@H](CNC(=O)c2cccc(O)c2)C(=O)O)c(Cl)c1 [Example 350] |  | 0.5 nM
7 | COc1ccc(C(=O)NC[C@H](NC(=O)c2c(Cl)cc(C(=O)NCc3cccc(O)c3)cc2Cl)C(=O)O)cc1O [Example 351] |  | 3 nM
8 | O=C(NCc1cccc(O)c1)c1cc(Cl)c(C(=O)N[C@@H](CNC(=O)c2sccc2Br)C(=O)O)c(Cl)c1 [Example 353] |  | 13 nM
9 | O=C(NCc1cccc(O)c1)c1cc(Cl)c(C(=O)N[C@@H](CNC(=O)c2ccc(Br)s2)C(=O)O)c(Cl)c1 [Example 354] |  | 12 nM
10 | Cc1ccc(C(=O)NC[C@H](NC(=O)c2c(Cl)cc(C(=O)NCc3cccc(O)c3)cc2Cl)C(=O)O)s1 [Example 358] |  | 6.5 nM
11 | O=C(NCc1cccc(O)c1)c1ccc(C(=O)N[C@@H](CNS(=O)(=O)c2ccccc2)C(=O)O)c(Cl)c1 [Example 360, 3-(phenylsulfonylamino)-N-[2-chloro-4-[[[(3-hydroxyphenyl)methyl]amino]carbonyl]benzoyl]-L-alanine] | 600 nM | 
12 | CC(=O)Nc1nc(C)c(S(=O)(=O)NC[C@H](NC(=O)c2ccc(C(=O)N[C@H](C)c3cccc4ccccc34)cc2Cl)C(=O)O)s1 [Example 362] | 1530 nM | 
13 | O=C(NCc1ccc(C(=O)N[C@@H](CNC(=O)c2ccccc2)C(=O)O)c(Cl)c1)c1cccc(O)c1 [Example 364, N-[2-chloro-4-[[(3-hydroxyphenyl)carbonyl]aminomethyl]benzoyl]-3-benzoylamino-L-alanine] | 167 nM | 
14 | O=C(NC[C@H](NC(=O)c1ccc(CNC(=O)c2ccccc2O)cc1Cl)C(=O)O)c1ccccc1 [Example 365] | 208 nM | 
15 | O=C(NCc1ccc(C(=O)N[C@@H](CNC(=O)c2ccccc2)C(=O)O)c(Cl)c1)c1ccc2[nH]ccc2c1 [Example 368] | 765 nM | 
16 | O=C(NCc1ccc(C(=O)N[C@@H](CNC(=O)c2ccccc2)C(=O)O)c(Cl)c1)c1ccc2cc[nH]c2c1 [Example 369] | 403 nM | 
17 | O=C(NC[C@H](NC(=O)c1ccc(C(=O)[C@H]2C[C@@H]2c2ccccc2)cc1Cl)C(=O)O)c1cccs1 [Example 377] | 160 nM | 

Other lines, results leading:

Row | IC50 [1] | IC50 [2] | SMILES
18 | 56 nM |  | O=C1CC[C@@H](C(=O)NC[C@H](NC(=O)c2ccc(C(=O)NCc3cccc(O)c3)cc2Cl)C(=O)O)O1 [Example 96]
19 | 121 nM |  | O=C(NCc1cccc(O)c1)c1ccc(C(=O)N[C@@H](CNC(=O)C2CC2)C(=O)O)c(Cl)c1 [Example 97]
20 | 50 nM |  | O=C(NCc1cccc(O)c1)c1ccc(C(=O)N[C@@H](CNC(=O)C2(c3ccccc3)CC2)C(=O)O)c(Cl)c1 [Example 99]
21 | 32 nM |  | O=C(NCc1cccc(O)c1)c1ccc(C(=O)N[C@@H](CNC(=O)C2CCC2)C(=O)O)c(Cl)c1 [Example 100]
22 | 50 nM |  | COCCC1(C(=O)NC[C@H](NC(=O)c2ccc(C(=O)NCc3cccc(O)c3)cc2Cl)C(=O)O)CCCC1 [Example 102]
23 | 44 nM |  | Cc1noc(C)c1CCC(=O)NC[C@H](NC(=O)c1ccc(C(=O)NCc2cccc(O)c2)cc1Cl)C(=O)O [Example 111]
24 | 30 nM |  | C/C=C/C(=O)NC[C@H](NC(=O)c1ccc(C(=O)NCc2cccc(O)c2)cc1Cl)C(=O)O [Example 113]
25 | 48 nM |  | COc1ccc(/C=C/C(=O)NC[C@H](NC(=O)c2ccc(C(=O)NCc3cccc(O)c3)cc2Cl)C(=O)O)cc1 [Example 114]
26 | 43 nM |  | O=C(/C=C/c1cccnc1)NC[C@H](NC(=O)c1ccc(C(=O)NCc2cccc(O)c2)cc1Cl)C(=O)O [Example 115]
27 | 114 nM |  | O=C(NCc1cccc(O)c1)c1ccc(C(=O)N[C@@H](CNC(=O)c2ccccc2Br)C(=O)O)c(Cl)c1 [Example 120]
28 | 32 nM |  | O=C(NCc1cccc(O)c1)c1ccc(C(=O)N[C@@H](CNC(=O)c2ccccc2Cl)C(=O)O)c(Cl)c1 [Example 122]
29 | 35 nM |  | O=C(NCc1cccc(O)c1)c1ccc(C(=O)N[C@@H](CNC(=O)c2ccc(Cl)cc2)C(=O)O)c(Cl)c1 [Example 124]
30 | 53 nM |  | CCOc1ccc(C(=O)NC[C@H](NC(=O)c2ccc(C(=O)NCc3cccc(O)c3)cc2Cl)C(=O)O)cc1 [Example 130]
31 | 61 nM |  | COc1ccc(C(=O)NC[C@H](NC(=O)c2ccc(C(=O)NCc3cccc(O)c3)cc2Cl)C(=O)O)cc1 [Example 135]
32 | 47 nM |  | Cc1ccc(C(=O)NC[C@H](NC(=O)c2ccc(C(=O)NCc3cccc(O)c3)cc2Cl)C(=O)O)cc1 [Example 139]
33 | 62 nM |  | CCCCCOc1ccc(C(=O)NC[C@H](NC(=O)c2ccc(C(=O)NCc3cccc(O)c3)cc2Cl)C(=O)O)cc1 [Example 143]
34 | 53 nM |  | O=C(NCc1cccc(O)c1)c1ccc(C(=O)N[C@@H](CNC(=O)c2ccccc2Oc2ccccc2)C(=O)O)c(Cl)c1 [Example 144]
35 | 119 nM |  | COc1cc(C(=O)NC[C@H](NC(=O)c2ccc(C(=O)NCc3cccc(O)c3)cc2Cl)C(=O)O)cc(OC)c1OC [Example 147]
36 | 35 nM |  | O=C(NCc1cccc(O)c1)c1ccc(C(=O)N[C@@H](CNC(=O)c2ccc([N+](=O)[O-])o2)C(=O)O)c(Cl)c1 [Example 149]
37 | 40 nM |  | Cc1cccc(C(=O)NC[C@H](NC(=O)c2ccc(C(=O)NCc3cccc(O)c3)cc2Cl)C(=O)O)n1 [Example 163]
38 | 39 nM |  | O=C(NCc1cccc(O)c1)c1ccc(C(=O)N[C@@H](CNC(=O)c2cccnc2)C(=O)O)c(Cl)c1 [Example 165]
39 | 61 nM |  | O=C(NCc1ccc(C(=O)N[C@@H](CNC(=O)c2ccccc2)C(=O)O)c(Cl)c1)c1cc(O)cc(O)c1 [Example 366]
40 | 73 nM |  | N=C(N)NC[C@H](NC(=O)c1ccc(C(=O)NCc2cccc(O)c2)cc1Cl)C(=O)O [Example 371, N-[2-chloro-4-[[[(3-hydroxyphenyl)methyl]amino]-carbonyl]benzoyl]-3-(aminoiminomethyl)amino-L-alanine]
41 | 68 nM |  | O=C(NC[C@H](NC(=O)c1ccc(/C=C/Cc2ccccc2)cc1Cl)C(=O)O)c1cccs1 [Example 373, N-[2-chloro-4-(3-phenyl-1-propenyl)benzoyl]-3-(thiophene-2-carbonyl)amino-L-alanine]
42 | 75 nM |  | O=C(CCc1ccccc1)c1ccc(C(=O)N[C@@H](CNC(=O)c2cccs2)C(=O)O)c(Cl)c1 [Example 378]
